Results: patent publication US20040198774A1, “Preventive and/or remedial agent for disease attributable to arteriosclerotic activity” (priority 2001, published 2004)

Experiments:
[1] = system: MCP-1 secretion from human aortic endothelial cells (HAEC); experiment: Secretion of MCP-1 from TNF-α stimulated human aortic endothelial cells (ELISA); type: cell-based; settings: test agent 0.03 to 30 μM, TNF-α 10 ng/mL for 4 hours, FIG. 2
Method: An effect on the secretion of MCP-1 from vascular endothelial cells was investigated using human aortic endothelial cells (available from Clonetics Corp., USA, and hereienafter abbreviated as “HAEC”). In usual, the HAEC cells were cultured in EGM-2 medium (Clonetics) containing 2% FBS (Clonetics) in a CO2 incubator (5% CO2, 37° C.). On the first day, the HAEC cells suspended in EGM-2 medium containing 2% FBS were seeded in 96-well plates at 1×10^5 cells/well and then cultured. On the second day, after the cells were washed with PBS, the culture medium was replaced with 200 μL of EGM-2 medium containing 0.4% FBS and the test agent at various concentrations (0.03 to 30 μM) (final DMSO concentration: 0.1%) to culture the cells for 24 hours. On the third day, after the cells were washed with PBS, the culture medium was replaced with 200 μL of EGM-2 medium containing 0.4% FBS, TNF-α (10 ng/mL), and the test agent at various concentrations (0.03 to 30 μM) (final DMSO concentration: 0.1%) to stimulate the cells for 4 hours. After stimulation with TNF-α, the culture medium was collected to measure the MCP-1 concentration of the culture medium by the use of a human MCP-1 ELISA kit (Biosource).

[2] = system: VCAM-1 expression in human aortic endothelial cells (HAEC); experiment: Expression of VCAM-1 in TNF-α stimulated human aortic endothelial cells (cell ELISA); type: cell-based; settings: test agent 0.03 to 30 μM, TNF-α 10 ng/mL for 4 hours, FIG. 1
Method: An effect on the expression of adhesion molecules in vascular endothelial cells was investigated using human aortic endothelial cells (available from Clonetics Corp., USA, and hereinafter abbreviated as “HAEC”). In usual, the HAEC cells were cultured in EGM-2 medium (Clonetics) containing 2% FBS (Clonetics) in a CO2 incubator (5% CO2, 37° C.). On the first day, the HAEC cells suspended in EGM-2 medium containing 2% FBS were seeded in 96-well plates at 1×10^5 cells/well and then cultured. On the second day, after the cells were washed with PBS, the culture medium was replaced with 200 μL of EGM-2 medium containing 0.4% FBS and the test agent at various concentrations (0.03 to 30 μM) (final DMSO concentration: 0.1%) to culture the cells for 24 hours. On the third day, after the cells were washed with PBS, the culture medium was replaced with 200 μL of EGM-2 medium containing 0.4% FBS, TNF-α (10 ng/mL) and the test agent at various concentrations (0.03 to 30 μM) (final DMSO concentration: 0.1%) to stimulate the cells for 4 hours. After stimulation with TNF-α, the cells were washed with PBS, and then the amount of VCAM-1 expressed was evaluated according to the following cell ELISA method using an anti-human VCAM-1 antibody solution (PharMingen). Namely, the cells were fixed and blocked using paraformaldehyde, and then 200 μL of the anti-human VCAM-1 antibody solution (PharMingen) was added as a primary antibody to induce a primary antibody response for overnight incubation. Next day, 200 μL of HRP-labeled anti-Mouse IgG (γ+L) Goat F (Ab7)2 was added as a secondary antibody to induce a secondary antibody response for 4 hours, and then a substrate solution (ortho-phenylenediamine and hydrogen peroxide) was added. After reaction, the absorbance was measured using a microplate spectrophotometer, and the obtained absorbance was used as an index of the amount of VCAM-1 expressed.

[3] = molecular target: T1, human PPARα (Homo sapiens, UniProt Q07869); experiment: cell-based
T1 sequence (Q07869 239-466 limits assumed): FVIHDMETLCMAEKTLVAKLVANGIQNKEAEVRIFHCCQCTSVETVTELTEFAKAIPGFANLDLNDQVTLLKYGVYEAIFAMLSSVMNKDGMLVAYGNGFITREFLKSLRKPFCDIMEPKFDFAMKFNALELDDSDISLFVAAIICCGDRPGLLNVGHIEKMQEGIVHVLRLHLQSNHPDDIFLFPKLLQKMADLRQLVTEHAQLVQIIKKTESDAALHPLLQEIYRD
Method: (§1) On the second day, a transfection mixture, which contained with 9 μL of TransIT-LT1 (Takara), 2 μg of the Gal4-hPPARα (LBD) vector, the Gal4-hPPARγ (LBD) vector or the Gal4-hPPARδ (LBD) vector, 1 μg of the Gal4-Luc and 200 μL of DMEM (without FBS), was gently added to the cells at 200 μL per well. The cells were cultured all day and night to carry out gene introduction to the cells. For the investigation of the specificity of the effect on the introduced PPAR genes, gene introduction was carried out in the same manner described above using a vector without PPAR ligand-binding domain (hereinafter abbreviated as a “Gal4-control vector”). On the third day, the cells in 3 wells of the 6-well plates were combined to adjust the concentration of cells to 3×10^5 cells/mL, and the obtained one was dispensed in 96-well plates at 100 μL/well to culture the cells. On the fourth day, the culture medium was replaced with 50 μL of the DMEM (+) containing the test compound at various concentrations (0.03 to 30 μM) (final DMSO concentration: 0.1%) to culture the cells. After the cells were exposed to the compound for 32 hours, 50 μL of Luc-Screen (Applied Biosystems) was added. 70 μL of the reaction solution in each well was moved to white plates to measure luminescence emitted due to the reaction of luciferase by the use of a Microplate Luminometer (EG & G berthold, LB96P).

[4] = molecular target: T2, human PPARγ (Homo sapiens, UniProt P37231); experiment: PPARγ transcription activation, Gal4-hPPARγ (LBD)/Gal4-Luc reporter in 293 T cells; type: cell-based; settings: Gal4-hPPARγ (LBD) luciferase reporter, 32 hours exposure, 0.03 to 30 μM, read-out: EC50 values of PPARs transcription activation effect, PPARγ
T2 construct: expressed in transfected cells; host or cells: 293 T cells
T2 sequence (P37231 238-503 limits assumed): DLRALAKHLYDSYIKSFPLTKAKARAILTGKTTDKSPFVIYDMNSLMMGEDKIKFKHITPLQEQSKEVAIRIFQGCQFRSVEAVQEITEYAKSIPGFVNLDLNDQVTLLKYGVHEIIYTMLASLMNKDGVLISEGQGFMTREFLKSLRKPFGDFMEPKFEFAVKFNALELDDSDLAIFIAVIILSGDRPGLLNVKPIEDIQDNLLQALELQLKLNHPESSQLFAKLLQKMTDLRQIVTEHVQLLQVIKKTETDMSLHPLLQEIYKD

[5] = molecular target: T3, human PPARδ (Homo sapiens, UniProt Q03181); experiment: PPARδ transcription activation, Gal4-hPPARδ (LBD)/Gal4-Luc reporter in 293 T cells; type: cell-based; settings: Gal4-hPPARδ (LBD) luciferase reporter, 32 hours exposure, 0.03 to 30 μM, read-out: EC50 values of PPARs transcription activation effect, PPARδ
T3 construct: expressed in transfected cells; host or cells: 293 T cells
T3 sequence (Q03181 211-439 limits assumed): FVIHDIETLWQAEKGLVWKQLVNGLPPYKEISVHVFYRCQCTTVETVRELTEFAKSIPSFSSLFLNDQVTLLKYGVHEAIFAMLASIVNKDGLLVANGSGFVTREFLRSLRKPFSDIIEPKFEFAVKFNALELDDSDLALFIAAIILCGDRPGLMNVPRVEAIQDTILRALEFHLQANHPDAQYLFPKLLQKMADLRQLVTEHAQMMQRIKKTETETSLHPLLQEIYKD
Method: as §1

SMILES	effect on the secretion of MCP-1 induced by stimulation with TNF-α [1]	effect on the expression of VCAM-1 induced by stimulation with TNF-α [2]	EC50 [3]	EC50 [4]	EC50 [5]
CC(C)OC(=O)C(C)(C)Oc1ccc(C(=O)c2ccc(Cl)cc2)cc1 [Fenofibrate]	no effect	–	–	–	–
Cc1cc(SCc2sc(-c3ccc(C(F)(F)F)cc3)nc2C)ccc1OCC(=O)O [GW501516]	suppressed	suppressed	–	–	–
O=C1NC(=O)C(Cc2ccc3cc(OCc4ccccc4F)ccc3c2)S1 (stereo not drawn) [MCC-555, 5-[6-(2-fluorobenzyloxy)-2-naphthyl]-methyl-thiazolidine-2,4-dione]	–	–	1000 nM	6200 nM	1200 nM
CCc1ccc(CCOc2ccc(CC3SC(=O)NC3=O)cc2)nc1 (stereo not drawn) [Pioglitazone]	no effect	no effect	–	–	–
CN(CCOc1ccc(CC2SC(=O)NC2=O)cc1)c1ccccn1 (stereo not drawn) [Rosiglitazone]	no effect	no effect	–	–	–
Cc1cccc(Nc2cc(Cl)nc(SCC(=O)O)n2)c1C [Wy-14643]	no effect	suppressed	–	–	–
